The conditions of data set [1]: human absorption data, from Ertl et al.; cited from earlier work.
Data set [2] deals with gastrointestinal motility. In words: Gastrointestinal transit (Evans Blue dye) in opioid induced constipation model. It counts as in vivo, mice. The settings on record: oral vehicle, loperamide 3 mg/kg subcutaneous, 30-minute period; vehicle/vehicle approximately 70%. As for the experimental part: Gastrointestinal transit is measured in mice treated with the peripherally acting μ-opioid agonist loperamide to assess the ability of selected example compounds to restore gastrointestinal motility in a model of opioid induced constipation. Approximately eight-week old, female, CD1 […] are purchased from Envigo (Livermore, Calif.), are housed 4 per cage and acclimated for at least 48 hours before study initiation. Animals are fed standard laboratory rodent chow Harlan Teklad Global 2018 (Maddison, Wis.). […] 30 minutes later, animals are euthanized by carbon dioxide inhalation, and the length from the pylorus to cecum (whole length of the small intestine) and the length from the pylorus to the Evans Blue dye front are measured and recorded. For an individual animal, the length travelled by the Evans Blue dye front is divided by the length of the whole small intestine, measured from the pylorus to the cecum, and multiplied by 100, to provide the distance of the small intestine travelled by the dye as a percentage. […] The effect of example compounds on GIT motility in the presence of loperamide is calculated as the ability to restore vehicle/vehicle transit distance from the vehicle/loperamide transit, expressed as a percentage.

In data set [3] the target is T1, human NHE3 (Homo sapiens, UniProt P48764).
T1 sequence (P48764 26-834): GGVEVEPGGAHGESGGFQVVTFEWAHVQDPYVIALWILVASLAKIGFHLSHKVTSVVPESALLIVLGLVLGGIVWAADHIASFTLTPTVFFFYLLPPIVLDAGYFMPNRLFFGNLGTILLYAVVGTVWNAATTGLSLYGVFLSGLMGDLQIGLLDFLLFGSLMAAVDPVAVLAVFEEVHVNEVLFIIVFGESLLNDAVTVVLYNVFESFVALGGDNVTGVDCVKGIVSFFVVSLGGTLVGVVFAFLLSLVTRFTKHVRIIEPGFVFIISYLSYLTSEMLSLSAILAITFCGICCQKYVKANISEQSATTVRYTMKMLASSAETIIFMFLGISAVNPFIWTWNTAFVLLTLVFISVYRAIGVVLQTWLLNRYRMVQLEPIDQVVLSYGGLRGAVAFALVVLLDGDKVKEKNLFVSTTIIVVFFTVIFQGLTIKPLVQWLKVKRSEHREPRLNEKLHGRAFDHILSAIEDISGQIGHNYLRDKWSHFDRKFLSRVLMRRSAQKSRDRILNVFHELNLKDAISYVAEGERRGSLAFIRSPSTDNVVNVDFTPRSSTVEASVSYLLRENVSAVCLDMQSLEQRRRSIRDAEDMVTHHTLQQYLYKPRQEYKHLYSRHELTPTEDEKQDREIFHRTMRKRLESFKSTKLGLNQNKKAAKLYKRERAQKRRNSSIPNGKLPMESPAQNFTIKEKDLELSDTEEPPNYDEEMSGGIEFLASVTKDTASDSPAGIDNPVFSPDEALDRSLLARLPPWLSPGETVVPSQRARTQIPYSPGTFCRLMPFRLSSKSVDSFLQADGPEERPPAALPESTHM
The data set is described as follows: Cell-based assay of NHE-3 activity (human NHE3 inhibition assay). Details: expressed in transfected cells; host or cells: Opossum kidney (OK) cells (ATCC), electroporated. The settings on record: OK cells with human NHE-3 gene, BCECF pH recovery, 0-30 μM test compound; read-out: Human NHE3 pIC50 (converted). As for the experimental part: Rat or human NHE-3-mediated Na^+-dependent H^+ antiport was measured using a modification of the pH sensitive dye method originally reported by Paradiso (Proc. Natl. Acad. Sci. USA. (1984) 81(23): 7436-7440). Opossum kidney (OK) cells were obtained from the ATCC and propagated per their instructions. The rat NHE-3 gene (GenBank M85300) or the human NHE-3 gene (GenBank NM_004174.1) was introduced into OK cells via electroporation, and cells were seeded into 96 well plates and grown overnight. Medium was aspirated from the wells, cells were washed twice with NaCl-HEPES buffer (100 mM NaCl, 50 mM HEPES, 10 mM glucose, 5 mM KCl, 2 mM CaCl2, 1 mM MgCl2, pH 7.4), then incubated for 30 min at room temperature with NH4Cl-HEPES buffer (20 mM NH4Cl, 80 mM NaCl, 50 mM HEPES, 5 mM KCl, 2 mM CaCl2, 1 mM MgCl2, pH 7.4) containing 5 μM bis(acetoxymethyl) 3,3′-(3′,6′-bis(acetoxymethoxy)-5-((acetoxymethoxy)carbonyl)-3-oxo-3H-spiro[isobenzofuran-1,9′-xanthene]-2′,7′-diyl)dipropanoate (BCECF-AM). Cells were washed twice with Ammonium free, Na^+-free HEPES (100 mM choline, 50 mM HEPES, 10 mM glucose, 5 mM KCl, 2 mM CaCl2, 1 mM MgCl2, pH 7.4) and incubated in the same buffer for 10 minutes at room temperature to lower intracellular pH. […] Initial rates were plotted as the average 2 or more replicates, and pIC50 values were estimated using GraphPad Prism.

In data set [4] the target is T1, human NHE3. The data set is described as follows: Cell-based assay of NHE-3 activity (persistent inhibition), human. To be noted: PS120 fibroblasts stably expressing human NHE3, 60 min incubation then washout. The procedure:
The ability of compounds to inhibit human and rat NHE-3-mediated Na^+-dependent H^+ antiport after application and washout was measured using a modification of the pH sensitive dye method described above. PS120 fibroblasts stably expressing human NHE3 were obtained from Mark Donowitz (Baltimore, Md.). Opossum kidney (OK) cells were obtained from the ATCC and propagated per their instructions. The rat NHE-3 gene was introduced into OK cells via electroporation, and cells were seeded into 96 well plates and grown overnight. Medium was aspirated from the wells, cells were washed once with NaCl-HEPES buffer (100 mM NaCl, 50 mM HEPES, 10 mM glucose, 5 mM KCl, 2 mM CaCl2, 1 mM MgCl2, pH 7.4), then overlayed with NaCl-HEPES buffer containing 0-30 μM test compound. After a 60 min incubation at room temperature, the test drug containing buffer was aspirated from the cells. Following aspiration, cells were washed once with NaCl-HEPES buffer without drug, then incubated for 30 min at 37° C. with NH4Cl-HEPES buffer (20 mM NH4Cl, 80 mM NaCl, 50 mM HEPES, 5 mM KCl, 2 mM CaCl2, 1 mM MgCl2, pH 7.4) containing 5 μM BCECF-AM. Cells were washed once with Ammonium free, Na^+-free HEPES (100 mM choline, 50 mM HEPES, 10 mM glucose, 5 mM KCl, 2 mM CaCl2, 1 mM MgCl2, pH 7.4) and incubated in the same buffer for 10 minutes at room temperature to lower intracellular pH. NHE-3-mediated recovery of neutral intracellular pH was initiated (10 min after compound washout) by addition of Na-HEPES buffer. […] Changes in intracellular pH were monitored using a FLIPR Tetra® (Molecular Devices, Sunnyvale, Calif.) by excitation at λex 439 to 505 nm, and measuring BCECF fluorescence at λem 538 nm. The initial rate of the fluorescence ratio change was used as a measure of NHE-mediated Na^+/H^+ activity, and reported as the change in fluorescence ratio per minute. Initial rates were plotted as the average 2 or more replicates, and pIC50 values were estimated using GraphPad Prism.

Data set [5] concerns the target T1, human NHE3. The data set is described as follows: Cell-based assay of NHE-3 activity (pre-incubation inhibition), human. As for the experimental part:
Rat and human NHE-3-mediated Na^+-dependent H^+ antiport was measured using a modification of the pH sensitive dye method originally reported by Paradiso (Proc. Natl. Acad. Sci. USA. (1984) 81(23): 7436-7440, which is hereby incorporated by reference in its entirety). PS120 fibroblasts stably expressing human NHE3 were obtained from Mark Donowitz (Baltimore, Md.). Opossum kidney (OK) cells were obtained from the ATCC and propagated per their instructions. The rat NHE-3 gene (GenBank M85300) was introduced into OK cells via electroporation, and cells were seeded into 96 well plates and grown overnight. Medium was aspirated from the wells then incubated for 30 min at 37° C. with NH4Cl-HEPES buffer (20 mM NH4Cl, 80 mM NaCl, 50 mM HEPES, 5 mM KCl, 2 mM CaCl2, 1 mM MgCl2, pH 7.4) containing 5 μM BCECF-AM. Cells were washed once with Ammonium free, Nat-free HEPES (100 mM choline, 50 mM HEPES, 10 mM glucose, 5 mM KCl, 2 mM CaCl2, 1 mM MgCl2, pH 7.4) and incubated in the same buffer for 10 minutes at room temperature to lower intracellular pH with 0-30 μM test compound. […] Changes in intracellular pH were monitored using a FLIPR Tetra® (Molecular Devices, Sunnyvale, Calif.) by excitation at λex 439 to 505 nm, and measuring BCECF fluorescence at λem 538 nm. The initial rate of the fluorescence ratio change was used as a measure of NHE-mediated Na^+/H^+ activity, and reported as the change in fluorescence ratio per minute. Initial rates were plotted as the average 2 or more replicates, and pIC50 values were estimated using GraphPad Prism.

`CC(=O)Nc1ccc(OCC(O)CNC(C)C)cc1` (stereo not shown) [practolol]: the “% FA” value in data set [1] is listed as 95%.

In the case of `CCN1CCCC1CNC(=O)c1cc(S(N)(=O)=O)ccc1OC` (stereo not shown) [sulpiride], the “% FA” value in data set [1] is 36%.

With `OC[C@H]1O[C@H](OC[C@H]2O[C@H](O[C@]3(CO)O[C@H](CO)[C@@H](O)[C@@H]3O)[C@H](O)[C@@H](O)[C@@H]2O)[C@H](O)[C@@H](O)[C@H]1O` [raffinose], the “% FA” value in data set [1] was 0.3%.

Consider `CN(C)C(=O)C(CCN1CCC(O)(c2ccc(Cl)cc2)CC1)(c1ccccc1)c1ccccc1` [loperamide], for which the “distance of the small intestine travelled by the Evans Blue dye front” value in data set [2] is recorded as ~25%.

With `C=CCOc1ccccc1OCC(O)CNC(C)C` (stereo not shown) [oxprenolol], in data set [1], the “% FA” value was 97%.

Turning to `N[C@@H]1CCCN([C@H]2Cc3c(F)cc(Cl)cc3[C@@H]2Oc2ccc(S(=O)(=O)NCCOCCOCCNC(=O)NCCCCNC(=O)NCCOCCOCCNS(=O)(=O)c3ccc(O[C@H]4c5cc(Cl)cc(F)c5C[C@@H]4N4CCC[C@@H](N)C4)cc3)cc2)C1` [Example 29], the IC50 is < 100 nM on human NHE3 [3]; > 1000 nM on human NHE3 [4] (read-out: pIC50 (human Persistence assay) (converted)); < 100 nM at human NHE3 [5] (PS120 fibroblasts stably expressing human NHE3, 10 min pre-incubation with 0-30 μM test compound, read-out: pIC50 (human Preincubation assay) (converted)). Besides, the “% inhibition (human Persistence assay)” value at human NHE3 [4] was “B (40-70%)”. For the same molecule, the “% inhibition (human Preincubation assay)” value at human NHE3 [5] (PS120 fibroblasts stably expressing human NHE3, pre-incubation with test compound) is “C (>70%)”.

For the molecule `OC[C@@H](O)[C@@H](O)[C@H](O)[C@H](O)CO` [mannitol], the “% FA” value in data set [1] is listed as 26%.

Turning to `OC[C@H]1O[C@@H](O[C@@H]2[C@@H](CO)OC(O)(CO)[C@H]2O)[C@H](O)[C@@H](O)[C@H]1O` (mixture of isomers) [lactulose], the “% FA” value in data set [1] is on record as 0.6%.

Take `Cc1ccccc1N1C(=O)c2cc(S(N)(=O)=O)c(Cl)cc2NC1C` (stereo not shown) [metolazone]: the “% FA” value in data set [1] is 64%.

As for `NC[C@H]1CC[C@H](C(=O)O)CC1` [tranexamic acid], in data set [1], the “% FA” value is recorded as 55%.

As to `C=CCc1ccccc1OCC(O)CNC(C)C` (stereo not shown) [alprenolol], the “% FA” value in data set [1] is on record as 96%.

As for `O=C(O)c1cc(/N=N/c2ccc(O)c(C(=O)O)c2)ccc1O` [olsalazine], in data set [1], the “% FA” value is 2.3%.

As to `O=C(O)P(=O)(O)O` [foscarnet], the “% FA” value in data set [1] is 17%.

As to `CC(C)NCC(O)COc1cccc2[nH]ccc12` (stereo not shown) [pindolol], the “% FA” value in data set [1] is 92%.

With `O=C(O)c1cc(/N=N/c2ccc(S(=O)(=O)Nc3ccccn3)cc2)ccc1O` [sulfasalazine], the “% FA” value in data set [1] was 12%.

These data come from US10376481B2, “Compounds and methods for inhibiting NHE-mediated antiport in the treatment of disorders associated with fluid retention or salt overload and gastrointestinal tract disorders” (ARDELYX, INC, priority 2012, dated 2019).
